Experimental data reported in the NIST ThermoML archive (doi:10.1016/j.jct.2011.05.030).
± gives the expanded uncertainty stated by the source.

Experiments:
[1] = Crystal; for vapor or sublimation pressure: Calculated from knudsen effusion weight loss; for Normal melting temperature: DTA
[2] = Molar enthalpy of transition or fusion; conditions: Crystal; DSC

c1ccc2c(c1)-c1cccc3c1c-2cc1ccccc13 [benz[e]acephenanthrylene]
vapor or sublimation pressure ([1]; 364.1 K): 4.7e-06 ± 2.5e-07 kPa | vapor or sublimation pressure ([1]; 369.3 K): 8.12e-06 ± 4.2e-07 kPa | vapor or sublimation pressure ([1]; 374.2 K): 1.46e-05 ± 7e-07 kPa | vapor or sublimation pressure ([1]; 377.2 K): 1.9e-05 ± 1e-06 kPa | vapor or sublimation pressure ([1]; 379.2 K): 2.41e-05 ± 1.2e-06 kPa | vapor or sublimation pressure ([1]; 382.2 K): 3.21e-05 ± 1.6e-06 kPa | vapor or sublimation pressure ([1]; 384.2 K): 3.95e-05 ± 2e-06 kPa | vapor or sublimation pressure ([1]; 387.2 K): 5.4e-05 ± 2.7e-06 kPa | vapor or sublimation pressure ([1]; 389.1 K): 6.22e-05 ± 3.1e-06 kPa | vapor or sublimation pressure ([1]; 392.1 K): 8.51e-05 ± 4.3e-06 kPa | vapor or sublimation pressure ([1]; 394.2 K): 0.000101 ± 5e-06 kPa | vapor or sublimation pressure ([1]; 397.1 K): 0.000131 ± 7e-06 kPa | vapor or sublimation pressure ([1]; 399.1 K): 0.000159 ± 8e-06 kPa | vapor or sublimation pressure ([1]; 404.1 K): 0.00023 ± 1.2e-05 kPa | vapor or sublimation pressure ([1]; 409 K): 0.000356 ± 1.8e-05 kPa | vapor or sublimation pressure ([1]; 414.1 K): 0.000533 ± 2.7e-05 kPa | Normal melting temperature [1]: 168.00 ± 0.5 °C | Molar enthalpy of transition or fusion [2]: 18.3 ± 2.8 kJ/mol

c1cc2ccc3ccc4ccc5cccc6c(c1)c2c3c4c56 [benzo[ghi]perylene]
vapor or sublimation pressure ([1]; 399.1 K): 4.16e-06 ± 2.2e-07 kPa | vapor or sublimation pressure ([1]; 404 K): 7e-06 ± 3.6e-07 kPa | vapor or sublimation pressure ([1]; 409 K): 1.15e-05 ± 6e-07 kPa | vapor or sublimation pressure ([1]; 414.4 K): 1.79e-05 ± 9e-07 kPa | vapor or sublimation pressure ([1]; 419 K): 2.83e-05 ± 1.4e-06 kPa | vapor or sublimation pressure ([1]; 424 K): 4.36e-05 ± 2.2e-06 kPa | vapor or sublimation pressure ([1]; 429 K): 6.54e-05 ± 3.3e-06 kPa | vapor or sublimation pressure ([1]; 434.1 K): 0.000104 ± 5e-06 kPa | vapor or sublimation pressure ([1]; 439 K): 0.000138 ± 7e-06 kPa | vapor or sublimation pressure ([1]; 441 K): 0.000207 ± 1e-05 kPa | vapor or sublimation pressure ([1]; 449.1 K): 0.000303 ± 1.5e-05 kPa | vapor or sublimation pressure ([1]; 454.1 K): 0.000432 ± 2.2e-05 kPa | Normal melting temperature [1]: 272.50 ± 0.5 °C | Molar enthalpy of transition or fusion [2]: 16.3 ± 2.8 kJ/mol

c1ccc2cc3c(cc2c1)-c1cccc2cccc-3c12 [benzo[k]fluoranthene]
vapor or sublimation pressure ([1]; 384.2 K): 1.63e-05 ± 8e-07 kPa | vapor or sublimation pressure ([1]; 389.2 K): 2.42e-05 ± 1.2e-06 kPa | vapor or sublimation pressure ([1]; 394.1 K): 3.62e-05 ± 1.8e-06 kPa | vapor or sublimation pressure ([1]; 399.1 K): 5.62e-05 ± 2.8e-06 kPa | vapor or sublimation pressure ([1]; 404 K): 8.86e-05 ± 4.4e-06 kPa | vapor or sublimation pressure ([1]; 409 K): 0.000136 ± 7e-06 kPa | vapor or sublimation pressure ([1]; 411 K): 0.000157 ± 8e-06 kPa | vapor or sublimation pressure ([1]; 419 K): 0.000383 ± 1.9e-05 kPa | vapor or sublimation pressure ([1]; 424 K): 0.000557 ± 2.8e-05 kPa | Normal melting temperature [1]: 217.00 ± 0.5 °C | Molar enthalpy of transition or fusion [2]: 26.5 ± 2.9 kJ/mol

c1ccc2c(c1)ccc1cc3c(ccc4ccccc43)cc12 [dibenz[a,h]anthracene]
vapor or sublimation pressure ([1]; 399.2 K): 5.11e-06 ± 2.7e-07 kPa | vapor or sublimation pressure ([1]; 404 K): 5.53e-06 ± 2.9e-07 kPa | vapor or sublimation pressure ([1]; 409.1 K): 9.22e-06 ± 4.7e-07 kPa | vapor or sublimation pressure ([1]; 414 K): 1.39e-05 ± 7e-07 kPa | vapor or sublimation pressure ([1]; 419.1 K): 3.95e-05 ± 2e-06 kPa | vapor or sublimation pressure ([1]; 424.2 K): 5.45e-05 ± 2.8e-06 kPa | vapor or sublimation pressure ([1]; 429.2 K): 8.89e-05 ± 4.5e-06 kPa | vapor or sublimation pressure ([1]; 434.2 K): 0.000112 ± 6e-06 kPa | vapor or sublimation pressure ([1]; 439.1 K): 0.000174 ± 9e-06 kPa | vapor or sublimation pressure ([1]; 444.1 K): 0.00028 ± 1.4e-05 kPa | vapor or sublimation pressure ([1]; 449.1 K): 0.000369 ± 1.9e-05 kPa | Normal melting temperature [1]: 269.50 ± 0.5 °C | Molar enthalpy of transition or fusion [2]: 24.5 ± 2.9 kJ/mol

c1ccc2c(c1)-c1ccc3ccc4cccc5cc-2c1c3c45 [indeno[1,2,3-cd]pyrene]
vapor or sublimation pressure ([1]; 384.1 K): 5.38e-06 ± 2.8e-07 kPa | vapor or sublimation pressure ([1]; 389.1 K): 7.96e-06 ± 4.1e-07 kPa | vapor or sublimation pressure ([1]; 394.2 K): 1.3e-05 ± 7e-07 kPa | vapor or sublimation pressure ([1]; 399.2 K): 2.19e-05 ± 1.1e-06 kPa | vapor or sublimation pressure ([1]; 404.1 K): 3.28e-05 ± 1.7e-06 kPa | vapor or sublimation pressure ([1]; 409.1 K): 5.33e-05 ± 2.7e-06 kPa | vapor or sublimation pressure ([1]; 414.1 K): 8.53e-05 ± 4.3e-06 kPa | vapor or sublimation pressure ([1]; 419.1 K): 0.000133 ± 7e-06 kPa | vapor or sublimation pressure ([1]; 424.1 K): 0.000201 ± 1e-05 kPa | Normal melting temperature [1]: 162.00 ± 0.5 °C | Molar enthalpy of transition or fusion [2]: 22.9 ± 2.8 kJ/mol
